PubChem BioAssay (NCI)
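Values below derive from 48-hour exposures of cells grown in 96-well plates, with endpoints linearly interpolated between the two concentrations bracketing the appropriate inhibition level. At the TGI there is no net growth.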

Assays:
Assay in all cases: DTP human tumour cell line panel, 48 h
[1] = tested on: HL-60(TB) leukemia
[2] = tested on: HCC-2998 colon
[3] = tested on: SK-MEL-28 melanoma
[4] = tested on: MDA-N
[5] = tested on: A549 NSCLC
[6] = tested on: COLO 205 colon
[7] = tested on: UACC-62 melanoma
[8] = tested on: BT-549 breast
[9] = tested on: NCI-H460 lung

Compound `CCCCCCCCCC(O)CC(=O)c1c(O)cccc1O` (centres undefined) has a TGI [1] of 57.3 µM, a TGI [2] of 26.8 µM and a TGI [3] greater than 100 µM. It also gave a TGI [4] of 51.6 µM, a TGI [5] of 55.1 µM and a TGI [6] of 91.7 µM.
In the case of `COC(=O)[C@H]1[C@@H](O)[C@@]2(O)c3c(OC)cc(OC)cc3O[C@@]2(c2ccc3c(c2)OCO3)[C@@H]1c1ccccc1`, the TGI [1] is reported as 0.763 µM, the TGI [2] is reported as 5.18 µM and the TGI [7] is reported as greater than 50 µM. For the same compound, the TGI [4] was 2.34 µM, the TGI [5] was 0.5 µM and the TGI [8] was greater than 50 µM. The TGI [6] was 0.0686 µM.
In the case of `COc1cc(NS(C)(=O)=O)ccc1NCc1cnc2ccc3[nH]cccc3c12`, the TGI [1] is reported as 18.3 µM, the TGI [2] is reported as 35.4 µM and the TGI [3] is reported as 60.9 µM. It also gave a TGI [7] of 35.8 µM, a TGI [5] greater than 96.3 µM and a TGI [9] of 42.1 µM. The TGI [8] was 52.6 µM and the TGI [6] was 31.3 µM.
For `CCn1c(-c2ccc(OC)cc2)nc2c1C(=O)c1ccccc1C2=O`, the TGI [1] was greater than 100 µM, the TGI [2] was greater than 100 µM and the TGI [3] was greater than 100 µM. For the same compound, the TGI [7] was greater than 100 µM, the TGI [4] was greater than 100 µM and the TGI [5] was greater than 100 µM. The TGI [9] was greater than 100 µM, the TGI [8] was greater than 100 µM and the TGI [6] was greater than 100 µM.
`COc1ccc(OC)c(NC2=NCCO2)c1` showed a TGI [1] greater than 100 µM, a TGI [2] greater than 100 µM and a TGI [3] greater than 100 µM. It also gave a TGI [7] greater than 100 µM, a TGI [4] greater than 100 µM and a TGI [5] greater than 100 µM. For the same compound, the TGI [9] was greater than 100 µM and the TGI [6] was greater than 100 µM.
With `O=C(N/N=C\c1cccs1)c1ccncc1` the TGI [1] was greater than 100 µM, the TGI [2] was greater than 100 µM and the TGI [3] was greater than 100 µM. The TGI [7] was greater than 100 µM, the TGI [5] was greater than 100 µM and the TGI [9] was greater than 100 µM. It also gave a TGI [8] greater than 100 µM and a TGI [6] greater than 100 µM.
`COC1=CC(=O)c2c(cc(COP(N)(=O)N(CCCl)CCCl)n2C)C1=O` (centres undefined) gave a TGI [1] of 3.89 µM, a TGI [2] of 2.3 µM and a TGI [3] of 8.83 µM. The TGI [7] was 2.16 µM, the TGI [4] was 4.09 µM and the TGI [5] was 4.31 µM. For the same compound, the TGI [9] was 4.31 µM, the TGI [8] was 2.14 µM and the TGI [6] was 3.08 µM.
For `CNC(=O)c1cc2nc3ccccc3c(=O)n2c2ccccc12`, the TGI [1] was greater than 10 µM, the TGI [2] was greater than 10 µM and the TGI [3] was greater than 10 µM. For the same compound, the TGI [7] was greater than 10 µM, the TGI [5] was greater than 10 µM and the TGI [8] was greater than 10 µM. For the same compound, the TGI [6] was greater than 10 µM.
For `Oc1cc(O)c2c(c1)O[C@H](c1cc(O)c(O)c(O)c1)[C@@H](O)C2`, the TGI [1] was 45.4 µM, the TGI [2] was greater than 10 µM and the TGI [3] was greater than 100 µM. For the same compound, the TGI [4] was 44.2 µM, the TGI [5] was greater than 100 µM and the TGI [9] was 37.7 µM. The TGI [8] was 51.5 µM and the TGI [6] was 35.8 µM.
With `C=C1C(=O)[C@]23C[C@H]1C[C@@H](O)[C@H]2[C@]1(COC3=O)[C@@H](OC(C)=O)CC[C@@](C)(COC(C)=O)[C@H]1C=O` the TGI [1] was 16.6 µM, the TGI [2] was greater than 50 µM and the TGI [3] was greater than 50 µM. For the same compound, the TGI [7] was greater than 50 µM, the TGI [4] was greater than 50 µM and the TGI [5] was greater than 50 µM. For the same compound, the TGI [9] was greater than 50 µM, the TGI [8] was greater than 50 µM and the TGI [6] was 16.4 µM.
For `CCCc1n[nH]c(=O)n1N1C(=O)C=CC1=O`, the TGI [2] was greater than 100 µM, the TGI [7] was greater than 100 µM and the TGI [4] was greater than 100 µM. For the same compound, the TGI [5] was greater than 100 µM, the TGI [9] was greater than 100 µM and the TGI [8] was greater than 100 µM. The TGI [6] was greater than 100 µM.
Work on `O=C(/C=C/c1ccc2c(c1)OCO2)NCCc1ccco1` yielded a TGI [2] greater than 100 µM, a TGI [3] greater than 100 µM and a TGI [7] greater than 100 µM. For the same compound, the TGI [4] was greater than 100 µM, the TGI [5] was greater than 100 µM and the TGI [9] was greater than 100 µM. For the same compound, the TGI [8] was greater than 100 µM and the TGI [6] was greater than 100 µM.
Compound `COc1cc(OCc2nc3cc(C(F)(F)F)ccc3nc2-c2ccccc2)cc(OC)c1OC` has a TGI [1] greater than 100 µM, a TGI [2] greater than 100 µM and a TGI [3] greater than 100 µM. For the same compound, the TGI [7] was greater than 100 µM, the TGI [5] was greater than 100 µM and the TGI [9] was greater than 100 µM. The TGI [8] was greater than 100 µM and the TGI [6] was greater than 100 µM.
Work on `COC(=O)CCCC1(CCCC(=O)OC)CCCCCCCCC(CCCC(=O)OC)(CCCC(=O)OC)C(=O)C1=O` yielded a TGI [1] of 12.2 µM, a TGI [2] greater than 100 µM and a TGI [3] greater than 100 µM. The TGI [7] was 39.5 µM, the TGI [4] was greater than 100 µM and the TGI [5] was 29.9 µM. The TGI [9] was greater than 100 µM and the TGI [6] was greater than 100 µM.
For `C[C@@H](NC(=O)[C@@H]1C[C@]1(C)CO)c1cccc2ccccc12`, the TGI [2] was greater than 100 µM, the TGI [3] was greater than 100 µM and the TGI [7] was greater than 100 µM. The TGI [4] was greater than 100 µM, the TGI [5] was greater than 100 µM and the TGI [9] was greater than 100 µM. The TGI [8] was greater than 100 µM and the TGI [6] was greater than 100 µM.
`Nc1nc2c(c(-c3ccccc3Cl)n1)COC/C2=C\c1ccccc1Cl` showed a TGI [1] of 25.5 µM, a TGI [2] of 34.6 µM and a TGI [7] of 30.6 µM. It also gave a TGI [4] of 24.1 µM, a TGI [9] of 39 µM and a TGI [8] of 33.4 µM. The TGI [6] was 30.1 µM.
`COc1ccc(N2CN(C)CSC2=S)cc1` gave a TGI [1] greater than 100 µM, a TGI [2] greater than 100 µM and a TGI [3] greater than 100 µM. It also gave a TGI [7] greater than 100 µM, a TGI [5] greater than 100 µM and a TGI [9] greater than 100 µM. It also gave a TGI [8] greater than 100 µM and a TGI [6] greater than 100 µM.
With `COC(=O)c1ccccc1NC(=S)NN(C)C` the TGI [1] was greater than 100 µM, the TGI [2] was greater than 100 µM and the TGI [3] was greater than 100 µM. The TGI [7] was greater than 100 µM, the TGI [4] was greater than 100 µM and the TGI [5] was greater than 100 µM. It also gave a TGI [8] greater than 100 µM and a TGI [6] greater than 100 µM.
`N/C(=N\S(=O)(=O)c1ccc(-c2ccccn2)s1)Nc1ccc(Cl)cc1` showed a TGI [3] of 37.8 µM, a TGI [7] of 26.4 µM and a TGI [4] of 19.6 µM. For the same compound, the TGI [5] was 47.2 µM, the TGI [9] was 34.8 µM and the TGI [8] was 32.6 µM. For the same compound, the TGI [6] was 35.9 µM.
Compound `C[C@]12C(=O)C=CCC1=CC[C@@H]1[C@@H]2[C@H]2CC3(O)C(=O)O[C@@]4(C)[C@H]5C[C@@]6(C)[C@@H]7[C@@]2(O)[C@]1(OC[C@H]6C(=O)O5)O[C@]734` (some centres undefined) has a TGI [1] greater than 100 µM, a TGI [3] greater than 100 µM and a TGI [7] greater than 100 µM. The TGI [4] was greater than 100 µM, the TGI [5] was greater than 100 µM and the TGI [9] was greater than 100 µM. The TGI [6] was greater than 100 µM.
Compound `O=S(c1ccccc1)C1CC2CC3(CCC21O)OCCO3` (centres undefined) has a TGI [1] greater than 100 µM, a TGI [2] greater than 100 µM and a TGI [3] greater than 100 µM. The TGI [7] was greater than 100 µM, the TGI [4] was greater than 100 µM and the TGI [5] was greater than 100 µM. The TGI [9] was greater than 100 µM and the TGI [6] was greater than 100 µM.
Work on `Cc1ccc(S(=O)(=O)NC(=O)NCCc2ccc(O)c(O)c2)cc1` yielded a TGI [1] greater than 100 µM, a TGI [2] greater than 100 µM and a TGI [3] greater than 100 µM. For the same compound, the TGI [7] was greater than 100 µM, the TGI [5] was greater than 100 µM and the TGI [9] was greater than 100 µM. The TGI [6] was greater than 100 µM.
`O=C(/C=C/c1ccc(OCc2ccccc2)cc1)NCc1ccc(C(=O)NCc2ccccc2)cc1` gave a TGI [2] greater than 100 µM, a TGI [3] greater than 100 µM and a TGI [7] greater than 100 µM. For the same compound, the TGI [4] was greater than 100 µM, the TGI [5] was greater than 100 µM and the TGI [9] was greater than 100 µM. For the same compound, the TGI [8] was greater than 100 µM and the TGI [6] was greater than 100 µM.
For `CC(=O)NNc1nc(C)c(C(/C=C/c2ccc([N+](=O)[O-])cc2)=N/NC(N)=O)s1`, the TGI [2] was greater than 100 µM, the TGI [3] was greater than 100 µM and the TGI [7] was greater than 100 µM. The TGI [4] was greater than 100 µM, the TGI [5] was greater than 100 µM and the TGI [9] was greater than 100 µM. The TGI [8] was greater than 100 µM and the TGI [6] was greater than 100 µM.
For `Clc1ccc2nc3n[nH]c(Cl)c3nc2c1`, the TGI [2] was greater than 100 µM, the TGI [3] was greater than 100 µM and the TGI [7] was greater than 100 µM. For the same compound, the TGI [4] was greater than 100 µM, the TGI [5] was greater than 100 µM and the TGI [9] was greater than 100 µM. It also gave a TGI [8] greater than 100 µM and a TGI [6] greater than 100 µM.
